Assay results reported in PubChem BioAssay (NCI).
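Step 1: Grow cells in 96-well plates. Step 2: Expose to compound for 48 hours at 5 concentrations. Step 3: Interpolate endpoints linearly; if unreached, use highest concentration. Here, GI50 denotes the concentration required for 50% inhibition of growth. TGI: concentration producing complete growth inhibition.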

What was measured:
Experiment in all cases: NCI anticancer screen, dose series, 48 h
HL-60(TB) leukemia = tested on: HL-60(TB) leukemia
LOX IMVI melanoma = tested on: LOX IMVI melanoma
M14 melanoma = tested on: M14 melanoma
MALME-3M melanoma = tested on: MALME-3M melanoma
MOLT-4 leukemia = tested on: MOLT-4 leukemia
NCI-H23 lung = tested on: NCI-H23 lung
NCI-H460 lung = tested on: NCI-H460 lung
OVCAR-5 ovarian = tested on: OVCAR-5 ovarian
SK-MEL-2 melanoma = tested on: SK-MEL-2 melanoma
SK-MEL-28 melanoma = tested on: SK-MEL-28 melanoma

| Compound | TGI (HL-60(TB) leukemia) [µM] | TGI (LOX IMVI melanoma) [µM] | TGI (M14 melanoma) [µM] | TGI (MALME-3M melanoma) [µM] | TGI (MOLT-4 leukemia) [µM] | TGI (NCI-H23 lung) [µM] | TGI (NCI-H460 lung) [µM] | TGI (OVCAR-5 ovarian) [µM] | TGI (SK-MEL-2 melanoma) [µM] | TGI (SK-MEL-28 melanoma) [µM] | GI50 (NCI-H23 lung) [µM] | GI50 (SK-MEL-2 melanoma) [µM] |
| --- | --- | --- | --- | --- | --- | --- | --- | --- | --- | --- | --- | --- |
| COCn1c(C)c(C)c2c(=O)oc(=O)[nH]c21 | > 100 | > 100 | > 100 | > 100 | > 100 | > 100 | > 100 | > 100 | > 100 | > 100 |  |  |
| COc1c(-c2cc(C)c(Cl)c(=O)[nH]2)c(O)c(OC)c2occc12 | > 100 | > 100 | > 100 | > 100 | > 100 | > 100 | > 100 | > 100 | > 100 | > 100 |  |  |
| CCCC1NC(C#N)(C#N)C(CCC)NC1(C#N)C#N (centres undefined) | 0.343 | 31.4 | > 60.6 | > 100 | 1.99 | > 51.3 | > 100 | > 90.1 | > 100 | > 100 |  |  |
| c1ccc2c(c1)c1c(n2CCOCCN2CCCCC2)CCCC1 | 8.33 | 28.3 | 25.7 | 26.7 | 26.7 | 37.4 | 28.2 | 25.7 | 21.1 | 58 |  |  |
| O=C1Cc2c(-c3ccc(Cl)cc3)cc(-c3ccccc3)nc2-c2ccccc2N1 | > 100 | 22.8 | > 100 | > 64 | > 76.5 | 33.8 | 10.7 | > 81 | 97.7 | 34.8 |  |  |
| COc1cc2c(cc1OCCCC(=O)Nc1cc(C(=O)Nc3cc(C(=O)Nc4cc(C(=O)NCCCN(C)C)n(C)c4)n(C)c3)n(C)c1)N=C[C@@H]1CCCN1C2=O | 3.42 | 2.26 | 3.11 | 3.39 | > 100 | 4.4 | 17.6 | 9.38 | 6.79 | 4.66 |  |  |
| COc1cc(/C=C2\C[C@H]3[C@@H]4CC=C5C[C@@H](N6CCCC6)CC[C@]5(C)[C@H]4CC[C@]3(C)[C@H]2O)cc(OC)c1OC | 21.9 | 20.8 | 4.74 | 23.9 | > 56.2 | 29.9 | 13.6 | 24.4 | 35.9 | 35 |  |  |
| N#CCCNCCN(CCN(C(=O)Nc1ccccc1)c1ccccc1)C(=O)Nc1ccccc1 | > 100 | > 100 | 46.1 | 54.8 | > 100 | > 100 | > 100 | > 100 | > 100 | 67.3 |  |  |
| O=C(O)Cc1ccc(Oc2nc3ccccc3nc2-c2cccs2)cc1 | > 100 | > 100 | > 100 | > 100 | > 100 | > 100 | > 100 | > 100 | > 100 | > 100 |  |  |
| Cn1ccnc1CCc1ccc(F)cc1F | > 100 | > 100 | > 100 | > 100 | > 100 | > 100 | > 100 | > 100 | > 100 | > 100 |  |  |
| Cc1cc(S(=O)(=O)Nc2nc3ccsc3c(=O)n2N)c(S)cc1Cl | > 100 | > 100 | > 100 | > 100 | > 100 | > 100 | > 100 | > 100 | > 100 | > 100 |  |  |
| Cc1cn(C2CC(O)C(CO)C2C)c(=O)[nH]c1=O (centres undefined) | > 100 | > 100 | > 100 | > 100 | > 100 | > 100 | > 100 | > 100 | > 100 | > 100 |  |  |
| COC(c1ccsc1)C(C#N)(C#N)N=Cc1ccsc1 (centres undefined) | 16.2 | 22 | 33.7 | 29.8 | 43.3 | 26.2 | 45.4 | 46.6 | 35.6 | 33.1 |  |  |
| C=CCNC1=C2C[C@@H](C)C[C@@H](OC)C(OC(=O)CCCN(C)C)[C@H](C)/C=C(\C)[C@@H](OC(N)=O)[C@H](OC)/C=C\C=C(/C)C(=O)NC(=CC1=O)C2=O (some centres undefined) | 20.2 | 21.7 | 20.7 | 14.4 | 39.1 | 20.8 | 13.9 | 28.5 | 25.5 | 27.4 |  |  |
| COc1cc2c(cc1OC)C1CN3C(=O)CCC3C(O)C1c1cc(OC)c(OC)cc1-2 (centres undefined) | > 100 | > 100 | > 100 | > 100 | > 100 | > 100 | > 100 | > 100 | > 100 | > 100 |  |  |
| CC(C)(C)C#C[P+](c1ccccc1)(c1ccccc1)c1ccccc1 | 0.0865 | 1.4 | 1.21 | 1.68 | 1.57 | 1.38 | 0.475 | 2.4 | 1.45 | 1.46 |  |  |
| Brc1ccc2c(-c3nc(-c4c[nH]c5ccccc45)cs3)c[nH]c2c1 | > 100 | > 73 | > 100 | > 100 | > 87 | > 88 | > 100 | > 100 | > 84.3 | > 93.6 |  |  |
| Cc1cc(NS(=O)(=O)c2ccc(NC(=O)c3ccc4nc5ccccc5c(Nc5ccc(S(=O)(=O)N=C(N)N)cc5)c4c3)cc2)no1 | 46.2 | 23.1 | 34.6 | 29.4 | 40.8 | 38.6 | 34.5 | 31.8 | 33.4 | 35 |  |  |
| Cc1cc(O)c(C(C)C)cc1NC(=O)Nc1cccc2ccccc12 | > 100 | 49.9 | 40 | 40.3 | > 100 | 46.3 | 41.4 | 56.4 | 30.4 | 55.8 |  |  |
| Cc1c(CNc2ccc(Cl)c(C(=O)NC(CC(=O)O)C(=O)O)c2)ccc2nc(N)nc(N)c12 (centres undefined) | > 1000 | > 1000 | > 1000 | 692 | > 1000 | > 1000 | 323 |  | > 1000 |  | 0.357 | > 1000 |
| Cc1ccccc1N=C(N)NC#N | > 100 | > 100 | > 100 | > 100 | > 100 | > 100 | > 100 | > 100 | > 100 | > 100 |  |  |

| Compound | TGI (HL-60(TB) leukemia) [µM] | TGI (LOX IMVI melanoma) [µM] | TGI (M14 melanoma) [µM] | TGI (MALME-3M melanoma) [µM] | TGI (MOLT-4 leukemia) [µM] | TGI (NCI-H23 lung) [µM] | TGI (NCI-H460 lung) [µM] | TGI (OVCAR-5 ovarian) [µM] | TGI (SK-MEL-2 melanoma) [µM] | TGI (SK-MEL-28 melanoma) [µM] | GI50 (NCI-H23 lung) [µM] | GI50 (SK-MEL-2 melanoma) [µM] |
| --- | --- | --- | --- | --- | --- | --- | --- | --- | --- | --- | --- | --- |
| Cc1ccc(S(=O)(=O)NC(=O)NC(Cc2c[nH]c3ccccc23)C(=O)O)cc1 (centres undefined) | > 100 | > 100 | > 100 | > 100 | > 100 | > 100 | > 100 | > 100 | > 100 | > 100 |  |  |
| COc1c2occc2c(OC)c2c(=O)c(S(=O)(=O)NC(=O)Nc3ccc(Cl)cc3)coc12 | > 10 | > 10 | > 10 | > 10 | > 10 | > 10 | > 10 | > 10 | > 10 | > 10 |  |  |
| COCn1c2ccc(OC(C)=O)cc2c2c(=O)oc(C)nc21 | > 100 | > 100 | > 100 | > 100 | > 100 | > 100 | > 100 | > 100 | > 100 | > 100 |  |  |
| C/C(O)=C/c1nc2ccccc2nc1/C=C(/C)O | 56.4 | 56.4 | 44.4 | 50.7 | 46.5 | > 100 | 34.4 | 79.9 | 40.1 | > 100 |  |  |
| CCNC(=S)N/N=C/c1cc(OC)ccc1O | > 100 | > 100 | > 100 | > 100 | > 100 | > 100 | > 100 | > 100 | > 100 | > 100 |  |  |
| O=C(NCC1Nc2ccncc2S(=O)(=O)N1)c1ccc(Br)cc1 (centres undefined) | > 100 | > 100 | 90.8 | 97.5 | > 100 | > 100 | > 100 | > 100 | 57.4 | > 100 |  |  |
| COc1cc(C2c3cc4c(cc3C(O)C3CCC(=O)N23)OCO4)cc(OC)c1OC (centres undefined) | 55.1 | > 100 | > 100 | > 100 | > 100 | > 100 | > 100 | > 100 | > 100 | > 100 |  |  |
| CCCC(Sc1nc(N)nc2nc[nH]c12)C(=O)O (centres undefined) | > 100 | > 100 | > 100 | > 100 | > 100 | > 100 | > 100 | > 100 | > 100 | > 100 |  |  |
| C=CCOc1ccc(C2c3c([nH][nH]c3=O)CC(O)(OCC)C2C(=O)OCC)cc1OC (centres undefined) | > 100 | > 100 | > 100 | > 100 | > 100 | > 100 | > 100 | > 100 | > 100 | > 100 |  |  |
| O=C(CCc1cccc(O)c1)NCCc1cccc(O)c1 | > 100 | > 100 | > 100 | > 100 | > 100 | > 100 | > 100 | > 100 | > 100 | > 100 |  |  |
| CC1=NN(c2cccc(Cl)c2)C2(C1)C(Cl)C(=O)N2c1nc2ccccc2s1 (centres undefined) | 53.4 | 34.9 | 64.1 | > 100 | 38.6 | 49.5 | > 100 | > 100 | 38.7 |  |  |  |
| COc1cc(Oc2nc3ccccc3nc2C(=O)O)cc(OC)c1OC | > 100 | > 100 | > 100 | > 100 | > 100 | > 100 | > 100 | > 100 | > 100 | > 100 |  |  |
| Oc1nc(N/N=C/c2c[nH]c3ccccc23)[nH]c1/C=C1\C=Nc2ccccc21 | 32.9 | 31.1 | 75.9 | 33.8 | 22.3 | 38.5 | > 100 | > 100 | 36.5 | 54.1 |  |  |
| Nn1c(Cc2ccc(Cl)cc2)n[nH]c1=O | > 100 | > 100 | > 100 | > 100 | > 100 | > 100 | > 100 | > 100 | > 100 | > 100 |  |  |
| CCSSCS(C)(=O)=O | > 100 | > 100 | 55.3 | > 100 | > 100 | 98 | > 100 | > 100 | > 100 | > 100 |  |  |
| CC1(C)C2CCC1(CS(=O)(=O)Nc1ccccc1)C(=O)C2 (centres undefined) | > 100 | > 100 | > 100 | > 100 | > 100 | > 100 | > 100 | > 100 | > 100 | > 100 |  |  |
| C=Nc1ccc([N+](=O)[O-])cc1 | > 100 | > 100 | > 100 | > 100 | > 100 | > 100 | > 100 | > 100 | > 100 | > 100 |  |  |
| N/C(=N\N=C\c1ccc2c(c1)OCO2)NO | 36 | 82.5 | 32.5 | 86.8 | 77.5 | 98.8 | > 100 | > 100 | 61.1 | > 100 |  |  |
| O=C(Nc1ccccc1)c1cc2c(cc1Cl)Sc1nccn1S2(=O)=O | 56.1 | 39 | > 58.2 | 74.3 | > 69 | 53.8 | > 60.6 | > 86.3 | 58.3 | 46.9 |  |  |
| CC(C)CC(=O)NC(Nc1ccc(S(=O)(=O)Nc2ncccn2)cc1)(C(F)(F)F)C(F)(F)F | > 100 | > 100 | > 100 | > 100 | > 100 | > 100 | > 100 | > 100 | > 100 | > 100 |  |  |
